From paper PMC2694132 (Cancer research, 2009)

Experiments:
Format in all cases: in vitro ADME
UGT1A9 = molecular target: T1, UGT1A9 (Homo sapiens, UniProt O60656); experiment: SAHA glucuronidation, UGT1A9-overexpressing HEK293 cell homogenate
T1 sequence (O60656 26-530): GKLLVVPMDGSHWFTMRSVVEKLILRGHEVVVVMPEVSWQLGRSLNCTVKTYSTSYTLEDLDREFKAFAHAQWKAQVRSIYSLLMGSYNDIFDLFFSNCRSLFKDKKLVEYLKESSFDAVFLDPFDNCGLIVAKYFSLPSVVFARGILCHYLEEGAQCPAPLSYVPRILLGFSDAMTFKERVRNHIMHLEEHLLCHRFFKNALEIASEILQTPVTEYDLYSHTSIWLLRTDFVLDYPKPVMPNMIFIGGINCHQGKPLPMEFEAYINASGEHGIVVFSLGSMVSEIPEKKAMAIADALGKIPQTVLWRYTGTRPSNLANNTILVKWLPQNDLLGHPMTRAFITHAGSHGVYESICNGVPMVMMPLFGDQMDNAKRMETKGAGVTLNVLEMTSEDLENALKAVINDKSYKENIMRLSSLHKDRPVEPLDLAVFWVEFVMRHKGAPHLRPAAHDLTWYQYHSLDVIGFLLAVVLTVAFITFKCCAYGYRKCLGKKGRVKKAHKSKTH

UGT2B4 = molecular target: T2, UGT2B4 (Homo sapiens, UniProt P06133); experiment: SAHA glucuronidation screen, UGT2B4-overexpressing cell homogenate; conditions: 400 μg UGT-overexpressing cell homogenate, 1-h incubation
T2 sequence (P06133 24-528): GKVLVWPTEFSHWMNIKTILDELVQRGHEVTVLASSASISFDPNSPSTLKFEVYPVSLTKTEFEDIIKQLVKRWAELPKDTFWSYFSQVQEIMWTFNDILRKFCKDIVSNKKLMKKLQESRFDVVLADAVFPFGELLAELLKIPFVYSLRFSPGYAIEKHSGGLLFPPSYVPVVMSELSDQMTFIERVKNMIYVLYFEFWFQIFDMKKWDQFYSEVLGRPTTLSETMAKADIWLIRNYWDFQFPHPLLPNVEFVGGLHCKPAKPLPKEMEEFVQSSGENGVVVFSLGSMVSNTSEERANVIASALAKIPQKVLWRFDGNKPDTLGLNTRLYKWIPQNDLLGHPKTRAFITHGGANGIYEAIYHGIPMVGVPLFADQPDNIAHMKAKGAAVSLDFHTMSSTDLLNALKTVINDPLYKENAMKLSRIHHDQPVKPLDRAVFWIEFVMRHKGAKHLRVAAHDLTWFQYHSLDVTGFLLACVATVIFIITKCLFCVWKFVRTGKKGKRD

UGT2B10 = molecular target: T3, UGT2B10 (Homo sapiens, UniProt P36537); experiment: SAHA glucuronidation screen, UGT2B10-overexpressing cell homogenate; conditions: 400 μg UGT-overexpressing cell homogenate, 1-h incubation
T3 sequence (P36537 24-528): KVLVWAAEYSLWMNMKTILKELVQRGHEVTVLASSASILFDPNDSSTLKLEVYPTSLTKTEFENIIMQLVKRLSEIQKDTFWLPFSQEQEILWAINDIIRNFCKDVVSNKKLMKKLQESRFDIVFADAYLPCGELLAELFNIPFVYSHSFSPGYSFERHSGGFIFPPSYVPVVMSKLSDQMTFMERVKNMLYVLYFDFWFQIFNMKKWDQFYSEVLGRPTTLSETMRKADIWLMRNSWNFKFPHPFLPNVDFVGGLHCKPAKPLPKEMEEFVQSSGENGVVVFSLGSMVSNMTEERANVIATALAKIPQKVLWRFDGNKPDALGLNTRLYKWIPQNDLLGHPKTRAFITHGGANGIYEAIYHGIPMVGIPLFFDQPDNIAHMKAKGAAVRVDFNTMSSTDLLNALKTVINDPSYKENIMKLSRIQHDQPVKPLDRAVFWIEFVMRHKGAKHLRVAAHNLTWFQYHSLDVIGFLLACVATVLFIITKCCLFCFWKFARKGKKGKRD

UGT2B11 = molecular target: T4, UGT2B11 (Homo sapiens, UniProt O75310); experiment: SAHA glucuronidation screen, UGT2B11-overexpressing cell homogenate; conditions: 400 μg UGT-overexpressing cell homogenate, 1-h incubation
T4 sequence (O75310 22-529): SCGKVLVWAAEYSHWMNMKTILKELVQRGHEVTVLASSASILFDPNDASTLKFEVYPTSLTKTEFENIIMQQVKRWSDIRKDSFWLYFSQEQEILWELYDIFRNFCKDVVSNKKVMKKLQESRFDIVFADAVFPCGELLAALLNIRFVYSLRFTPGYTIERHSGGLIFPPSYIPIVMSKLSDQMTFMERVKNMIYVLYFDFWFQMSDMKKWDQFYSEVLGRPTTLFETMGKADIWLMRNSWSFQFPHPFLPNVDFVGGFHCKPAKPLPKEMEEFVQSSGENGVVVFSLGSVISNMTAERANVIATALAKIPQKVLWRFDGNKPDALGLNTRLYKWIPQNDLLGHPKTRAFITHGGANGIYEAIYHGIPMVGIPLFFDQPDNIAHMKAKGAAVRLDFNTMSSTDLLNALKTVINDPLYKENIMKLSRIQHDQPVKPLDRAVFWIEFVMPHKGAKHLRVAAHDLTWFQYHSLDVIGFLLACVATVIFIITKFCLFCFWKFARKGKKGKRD

[1] = molecular target: T5, UGT1A7*4 (UGT1A7p.Trp208Arg) (Homo sapiens, UniProt Q9HAW7, W208R); experiment: SAHA glucuronidation, UGT1A7*4 variant cell homogenate
T5 sequence (Q9HAW7 26-530 W208R): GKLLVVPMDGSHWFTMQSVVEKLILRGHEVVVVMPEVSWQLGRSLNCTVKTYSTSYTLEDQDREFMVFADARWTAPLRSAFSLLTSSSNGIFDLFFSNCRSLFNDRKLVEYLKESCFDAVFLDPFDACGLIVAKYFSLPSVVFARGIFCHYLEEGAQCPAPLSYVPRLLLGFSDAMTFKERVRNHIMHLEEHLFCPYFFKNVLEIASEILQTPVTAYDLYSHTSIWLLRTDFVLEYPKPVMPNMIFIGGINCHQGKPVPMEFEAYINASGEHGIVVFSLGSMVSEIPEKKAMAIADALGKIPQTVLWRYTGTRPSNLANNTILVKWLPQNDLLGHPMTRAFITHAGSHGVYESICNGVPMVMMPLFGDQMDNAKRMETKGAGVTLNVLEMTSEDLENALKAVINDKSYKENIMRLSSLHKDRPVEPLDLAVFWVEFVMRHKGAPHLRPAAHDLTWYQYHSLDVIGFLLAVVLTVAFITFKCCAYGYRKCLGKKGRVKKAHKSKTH

## O=C(CCCCCCC(=O)Nc1ccccc1)NO [SAHA, Suberoylanilide hydroxamic acid]
UGT1A9; 400 μg UGT-overexpressing cell homogenate, 1-h incubation
  glucuronidation against SAHA (screen): high levels of glucuronidation
UGT1A9; human, UGT1A9-overexpressing HEK293 cell homogenate, pH 7.5
  Km at 1 h: 1600 ± 500 µM
UGT2B4
  glucuronidation activity against SAHA (screen): No detectable glucuronidation activity
UGT2B10
  glucuronidation activity against SAHA (screen): No detectable glucuronidation activity
UGT2B11
  glucuronidation activity against SAHA (screen): No detectable glucuronidation activity
[1]; UGT1A7 variants
  difference in glucuronidation activity against SAHA versus wild-type UGT1A7: No significant difference
[1]; human, pH 7.5
  Km at 1 h: 2200 ± 500 µM
